Tests used:
[1] = system: DLD-1 Flp-In T-REx and Lyn KO cells; assay: Level of Lyn / Lyn-GFP variants after NMT1/2 and DCAF10 siRNA, Western blot; format: cell-based, human; conditions: WB/vinculin, n = 3
From the text: To further investigate the role of the Nt-amino acid and its modification in DCAF10 recognition and DCAF10-dependent ubiquitination, we used the CRISPR/Cas9 technique to knock out Lyn in DLD-1 cell lines with T-REx Flp-In background (DLD-1 Lyn KO Flp-In T-REx) (Supplementary Fig. 7a–c). We then integrated Lyn^WT-GFP and two Nt-mutants (Lyn^G2A-GFP and Lyn^G2P-GFP) under a doxycycline-inducible promoter into the Flp-In cassette. Alanine (G2A) is expected to be efficiently acetylated by NatA, generating an Nt-acetylated Lyn mutant. Conversely, the proline (G2P) mutant, is expected not to be acetylated and may retain a free N-terminus[3],[36],[37]. Doxycycline-induced expression of Lyn^WT-GFP, Lyn^G2A-GFP, and Lyn^G2P-GFP was confirmed by Western blot, MS, and fluorescence microscopy (Supplementary Figs. 7d, e; 8a and Supplementary Data 6). While all constructs were ~2–5-fold higher expressed than endogenous Lyn, G2A and G2P were further elevated relative to WT, which may reflect increased stability when Nt-Gly/acetylation is altered (Supplementary Fig. 7e). […] Lyn^WT-GFP mirrored the behavior of endogenous Lyn under NMT1/2 siRNA treatment. Lyn levels decreased with NMT1/2 KD, but were rescued when siRNAs targeting both NMT1/2 and DCAF10 were applied (Fig. 6a, b). […] The weaker reduction of Lyn^WT-GFP may result from Lyn overexpression and the limiting availability of DCAF10.
Fig. 6 N-terminal glycine mutation abolishes DCAF10-dependent stability and ubiquitination. a DLD-1 Flp-In T-REx cells and Lyn KO cells expressing Lyn^WT-GFP, Lyn^G2A-GFP, or Lyn^G2P-GFP were induced for 24 h with 100 ng/mL doxycycline. Cells were treated with NMT1/2 siRNA, DCAF10 siRNA, or both (or left untreated) for 72 h. Representative WBs are shown. Filled circles represent siRNA treatment, empty circles untreated. b WB quantifications of Lyn levels normalized to vinculin. Purple: untreated with NMT1/2 siRNA; blue: treated with NMT1/2 siRNA. Mean ± s.d. with individual data points are shown (n = 3 independent biological replicates). c Schematic of ubiquitination experiments. Created in BioRender. […] Lysates have been treated with NMT1/2 RNAi for 72 h. i Quantification of in vitro ubiquitination assays. Mean ± s.d. with individual data points are shown (n = 3 independent ubiquitination assays). Volcano plots of Lyn-GFP^WT binding partners: j NMT1/2 siRNA ± doxycycline (Dox); k Control ± doxycycline; l NMT1/2 siRNA vs. control both with doxycycline. The −log10 adjusted p-value (two-sided Student’s t test with permutation-based multiple-testing correction; y-axis) is plotted against the log2 fold change (x-axis). Threshold for significance: −log10 p-value ≥ 1.3 (p ≤ 0.05), log2 fold change ≤ −1 or ≥ 1. DCAF10 and Lyn-GFP are marked in green, significant binding partners in purple and in blue, respectively. Source data are provided as a Source data file.
DLD-1 Lyn knockout (KO) Flp-In T-REx cells were generated by CRISPR/Cas9 electroporation using two guide RNAs targeting the LYN locus. Editing and clone validation were confirmed by genomic sequencing, Western blotting, and MS[51]. Stable cell lines expressing doxycycline-inducible Lyn-GFP (WT, G2A, or G2P) were established by FRT/Flp-mediated recombination and validated by antibiotic selection, Western blotting, and fluorescence microscopy. Detailed protocols are provided in the Supplementary Methods and Tables.
461 electroporated using the CM137 program. Following electroporation, the cells were kept […]

CUL4A-DDB1-DCAF10 = assay: In vitro ubiquitination of Lyn-GFP variants by CUL4A-DDB1-DCAF10; format: biochemical, human; conditions: Lyn-GFP variants, NMT1/2 siRNA
From the text: Lyn^WT-GFP was ubiquitinated by the WT E3 complex in both conditions; however, unlike in vitro ubiquitination with endogenous Lyn (Fig. 5c, d), ubiquitination increased ~6-fold under NMT1/2 siRNA conditions. This is consistent with DCAF10 being limiting and overexpressed Lyn-GFP, accumulating an acetylated fraction available for DCAF10 in vitro. Then, we performed IPs for all Nt variants under NMT1/2 siRNA conditions (Fig. 6d, h–i). […] In vitro ubiquitination assays using untreated cell lysates led to similar results (Supplementary Fig. 7h, i).
Reactions contained E1, UBCH5B (E2), ubiquitin, Mg-ATP in ligation buffer and were incubated with bead-bound substrates, followed by washing and immunoblot detection of ubiquitinated species (anti-ubiquitin), with loading controls (anti-Lyn, -Fyn, -Src or -GFP) (n = 3 independent enzymatic assays). Complete reagent lists, complex preparation, substrate IP conditions, wash buffers, and gel/blot parameters are provided in the Supplementary Methods and Tables.
357 (v/v) glycerol, 2 mM TCEP, supplemented with Protease Inhibitor Cocktail), and lysed
358 by sonication. Lysates were cleared by centrifugation at 28,000 rpm for 45 min at 4 °C
359 using a JA-30.50 rotor (Beckman Coulter, Brea, CA, USA). The cleared and filtered (0.8
360 µm) lysate was applied to 1 mL of Strep-Tactin®XT 4Flow® resin (iba), pre-equilibrated
361 once with wash buffer (100 mM Tris-HCl pH 8.0, 150 mM NaCl, 1 mM EDTA) and lysis
362 buffer. The lysate was incubated on a tube roller for 16 h at 4 °C. After incubation, beads
363 were washed with 50 mL of lysis buffer. Bound proteins were eluted with 10 mL of lysis
364 buffer supplemented with 50 mM biotin, after 15 min incubation on a tube roller at 4 °C.
366 Superdex 200 10/300 or 16/60 SEC column (GE Healthcare, Chicago, IL, USA),
367 preequilibrated in SEC buffer (250 mM Tris pH 7.5, 250 mM NaCl, 10% (v/v) glycerol,
370 Purified proteins were visualized during and after the purification by SDS-gels containing
371 TCE (2,2,2-trichloroethanol)62. The identity of proteins was confirmed by WB and MS.
373 In vitro ubiquitination assays
374 The in vitro ubiquitination assays were performed as previously described8. In brief,
375 E1 (50 nM), UBCH5B (250 nM), ubiquitin (1.5 µg), Mg-ATP (3 mM), ligation buffer,
376 and water were pre-mixed. The premix was divided, and either CUL4A-RBX1-
378 RBX1DDB1 (-DCAF10) (250 nM each) was added. 15 μL of each premix were incubated
379 with substrates (endogenous Lyn or Lyn-GFP constructs) bound to beads for 1 h at 30°C
380 with shaking. Samples were then washed four to five times with a buffer containing 50 […]
382 EDTA, and loaded on a gradient gel (4–15%). Ubiquitination of substrates was assessed
383 by WB using an anti-ubiquitin antibody. Equal substrate loading was evaluated by anti- […]

DCAF10 = assay: Peptide pull-down with quantitative MS, HeLa lysate, DCAF10; format: binding, human (HeLa); conditions: HeLa lysate
Experimental: Beads presenting 10-residue synthetic Nt-peptides of proteins of interest in their free (Nt-free) or modified (e.g., Nt-acetylated) versions were incubated with lysates from HeLa cells, followed by MS-based quantification of retained binders (Fig. 1a).
Biotinylated 10-mer Nt-peptides (Nt-free, Nt-acetylated, and, where indicated, Nt-myristoylated; sequences in Supplementary Table 1) were synthesized with a C-terminal Lys3 spacer and biotin, immobilized on magnetic streptavidin beads, and incubated with HeLa or mouse liver lysates. After standardized washes, bound proteins were on-bead reduced/alkylated, digested with LysC/trypsin, desalted, and analysed by LC-MS in DIA mode (Orbitrap Exploris 480) as described previously[24]. Variants included endogenous Nt-sequences, swap and mutant (Ala-Ala-Ala or Nt-amino acids) peptides, and pairwise comparisons of conditions of interest.
All MS experiments were performed as independent biological triplicates. Relative protein quantification was carried out using the label-free algorithm integrated in DIA-NN[53], and statistical testing was performed in Perseus using a two-sided Student’s t test with permutation-based multiple-testing-adjusted p-values[53],[54], as specified in the figure legends. […] Volcano blots were visualized with RStudio (version 2023.06.0). […] Cell experiments were performed as biological replicates, and binding assays as independent assays. […] Data are presented as mean ± s.d. Fold changes are reported as the ratio of the normalized value for the condition of interest to the normalized control value, with mean ± s.d. computed across biological replicates.

GST-DCAF10 = assay: Streptavidin pull-down of GST-DCAF10 with biotinylated Nt-peptides; format: binding, human; conditions: 0.5 µM GST-DCAF10, 5 µM peptide, 1 h RT; WB; listed as Nt-acetylated Fyn
Experimental: To confirm direct interactions between peptides and DCAF10, we performed pull-down assays using bead-bound Nt-peptide variants incubated with purified full-length GST-DCAF10 or GST as a negative control (Fig. 2m–p and Supplementary Fig. 4a).
230 of 1:100), and desalted/concentrated on C18 reversed phase stage tips as previously
MS measurements settings are stated in MS measurements and raw file
BL21(DE3) cells (Thermo Fisher Scientific,
240 agar) plate containing 100 μg/mL ampicillin and 34 μg/mL chloramphenicol, then
Terrific broth (TB) medium (24 g/L yeast extract,
243 20 g/L tryptone, glycerol 4 mL/L, 100 mL/L phosphate buffer containing 0.17 M KH2PO4
244 and 0.72 M K2HPO4) was used to prepare a 1:100 dilution of the starter culture, and OD600
At OD600 = 1, protein induction was initiated by adding 1 mM
247 day, pellets were homogenized and lysed in glycerol lysis buffer (20 mM Tris-HCl pH
Lysis was performed on ice for 30 min, followed by
250 sonication (7 × 20 sec pulses with 20 sec breaks on ice) using a Bandelin sonoplus
Lysates were centrifuged at 4°C for 1 h
253 medium culture was lysed in 20 mL of supernatant (collected in 20 × 1 mL tubes). GST
255 agarose bead; Thermo Fisher Scientific, Waltham, MA, USA). For each 1 mL of
100 μL of GST magnetic beads
257 were washed twice with 500 μL of wash buffer (125 mM Tris-HCl pH 7.4, 150 mM NaCl,
The lysis supernatant was diluted 1:1 with
259 wash buffer, and incubated with the beads on an end-over-end rotator for 1 h at 25°C.
260 After incubation, the supernatant was removed, and the beads were washed twice with
Protein elution was then performed by incubating
263 pH 7.4, 250 mM NaCl, 0.3% Triton X-100) for 30 min at 25°C on an end-over-end rotator.
265 under the same conditions. Elution fractions were pooled and concentrated by
266 centrifugation (4°C, 25 min, 4500 rpm) using a 30 kDa cut-off concentrator (Merck
267 Millipore, #UFC803008, Darmstadt, Germany). Purified proteins were analyzed by
268 colloidal Coomassie stain, WB and MS.
270 Streptavidin pull-downs with GST-DCAF10 and biotinylated peptides
271 Streptavidin magnetic beads (DynabeadsTM MyOneTM Streptavidin T1; Thermo Fisher
272 Scientific, Waltham, MA, USA) were washed twice with 500 μL of wash buffer (125 mM
273 Tris-HCl pH 7.4, 150 mM NaCl, 0.1% Triton X-100). An excess of peptides was added
274 (to ensure full occupancy of the beads) and incubated for 30 min at RT. After peptide
275 binding, beads were again washed three times with 500 μL of wash buffer. The pull-down
276 was then performed in a 100 μL reaction volume with final concentrations of 0.5 µM
277 GST-DCAF10 and 5 µM peptide. GST-DCAF10 or GST alone (as a control) was added
278 to the peptide-streptavidin beads and incubated on a rotator for 1 h at RT. After incubation,
279 the beads were washed three times with 500 μL of wash buffer and resuspended in 4x
280 Laemmli buffer. 1/5 of the input (GST-DCAF10 and GST) and 9/10 of the sample were
281 loaded on a 10% SDS gel and blotted with anti-GST and anti-DCAF10 antibodies, while
282 1/10 was loaded on a 15% SDS gel and blotted with anti-streptavidin antibody to assess
283 equal peptide loading.
285 Streptavidin Sepharose High Performance, GE Healthcare, Chicago, IL, USA) were used.
286 After washing with a high salt wash buffer without detergents (125 mM Tris-HCl pH 7.4,
287 400 mM NaCl), an excess of peptides was added and incubated for 30 min at RT. For each
288 reaction, 10 µL of slurry beads were used. After peptide-binding, beads were again
289 washed once with a high salt wash buffer without detergents and twice with binding buffer
290 without detergents (125 mM Tris-HCl pH 7.4, 150 mM NaCl). The pull-downs were
291 performed in a 100 μL reaction volume in binding buffer without detergents with a final
292 concentration of 0.5 µM GST-DCAF10 and incubated rotating for 1 h at RT. After
293 incubation, the beads were washed five times with 500 μL of high salt wash buffer without […]

“endogenous Lyn: endogenous Lyn kinase of DLD-1 cells” was tested, and the “Level decrease following NMT1/2 KD” value ([1]; DLD-1, 72 h NMT1/2 siRNA, 24 h doxycycline 100 ng/mL, average) was 31% and the “Level increase upon combined NMT1/2 and DCAF10 KD” value ([1]; DLD-1, 72 h siRNA) was 36.5%.
In the case of “RBX1^mut: catalytically inactive variant complex (RBX1 C75A, H77A)”, the “In vitro ubiquitination (in words)” value (CUL4A-DDB1-DCAF10) is reported as “failed to ubiquitinate any variant above background”.
With “GCVQCKDKEAKK [Ac-Fyn, Nt-peptide of Fyn, Nt-acetylated]” the “DCAF10 binding, Nt-Ac vs Nt-Myr (in words)” value (DCAF10) was “DCAF10 selectively recognizes the acetylated form”, the “DCAF10 binding (in words)” value (DCAF10; Nt-Ac vs Nt-free peptides) was “bound to DCAF10” and the “Binding to GST-DCAF10 (in words)” value (GST-DCAF10) was “bound robustly to GST-DCAF10”.
